EC50 and CC50 data for 14 molecules are collected here from US20250115620A1, “BRIDGED TRICYCLIC CARBAMOYLPYRIDONE COMPOUNDS AND USES THEREOF” (Gilead Sciences, Inc., priority 2022, published 2025).

Read-outs that look alike come from different tables or passages of the source.

Data set [1] relates to pLAI reporter virus. The experiment in a line: microbe, parasite or virus in culture. The following applies: Human immunodeficiency virus 1, MT4, 72 h. Type of data set: cell-based, HIV.
Data set [2] concerns HIV-1 (IIIB). The experiment in a line: microbe, parasite or virus in culture. The format is cell-based. The following applies: Human immunodeficiency virus 1, IIIB, MT4, 120 h, read-out: MT4 EC50.
Data set [3] can be described thus: in vitro. The following applies: human; for CC50 at 5 days: uninfected MT-4 cells.
Protocol: Compounds were serially diluted (1:3) in DMSO on 384-well polypropylene plates and further diluted 200-fold into complete RPMI media (10% FBS, 1% P/S) using the Biotek Micro Flow and Labcyte ECHO acoustic dispenser. […] Infected and uninfected MT-4 cells were further diluted in complete RPMI media and added to each plate using a Micro Flow dispenser. After 5 days incubation in a humidified and temperature controlled incubator (37° C.), Cell Titer Glo (Promega) was added to the assay plates and chemiluminescence read using an Envision plate-reader.
Assays were performed as above except uninfected MT-4 cells were added to each well containing test compound. In addition, 10 μM puromycin was added to the last column of each assay plate to assess a base level of cytotoxicity.
[4] abbreviates: HIV-1 (IIIB) in MT-4 cells, 5 days incubation, Cell Titer Glo.

As for `CC1=NO[C@@]2(CC[C@H](C)N3C[C@H]2n2cc(C(=O)NCc4ccc(F)cc4F)c(=O)c(O)c2C3=O)[C@H]1O` [Example 28, (3′S,4S,5R,7′R)—N-(2,4-difluorobenzyl)-4,12′-dihydroxy-3,3′-dimethyl-1′,11′-dioxo-1′,4′,5′,11′-tetrahydro-3′H,4H,7′H-spiro[isoxazole-5,6′-[2,7]methanopyrido[1,2-a][1,4]diazonine]-10′-carboxamide], the EC50 in data set [1] (read-out: RLUC 50% HS EC50) amounted to 51.5 nM; in data set [1] (read-out: RLUC CCM EC50) it was 0.4 nM; in data set [2] (setting [4]), 0.9 nM. Further, in data set [3], the CC50 at 5 days came to 47000 nM.
Regarding `C[C@H]1CC[C@]2(CC(=O)N(Cc3ccc(F)cc3)O2)[C@H]2CN1C(=O)c1c(O)c(=O)c(C(=O)NCc3c(F)cc(F)cc3F)cn12` (single isomer, unassigned) [Example 115], the EC50 stood at 5.1 nM in data set [1] (read-out: RLUC 50% HS EC50), 0.3 nM in data set [1] (read-out: RLUC CCM EC50) and 1.2 nM in data set [2] (setting [4]). This molecule gave a CC50 at 5 days in data set [3] of at least 50000 nM.
Consider `C[C@H]1CC[C@]2(CC(Cl)=NO2)[C@H]2CN1C(=O)c1c(O)c(=O)c(C(=O)NCc3c(F)cc(F)cc3F)cn12` [Example 53, (3′S,5S,7′R)-3-chloro-12′-hydroxy-3′-methyl-1′,11′-dioxo-N-(2,4,6-trifluorobenzyl)-1′,4′,5′,11′-tetrahydro-3′H,4H,7′H-spiro[isoxazole-5,6′-[2,7]methanopyrido[1,2-a][1,4]diazonine]-10′-carboxamide], for which the figures for the EC50 in data set [1] (read-out: RLUC 50% HS EC50), in data set [1] (read-out: RLUC CCM EC50) and in data set [2] were 166 nM, 0.3 nM and 1.7 nM, respectively. Also, the CC50 at 5 days in data set [3] came to 9470 nM.
For `CC1=NO[C@@]2(CC[C@H](C)N3C[C@H]2n2cc(C(=O)NCc4ccc(F)cc4F)c(=O)c(O)c2C3=O)[C@@H]1F` (single isomer, unassigned) [Example 27 (peak 2)], the results for the EC50 in data set [1] (read-out: RLUC 50% HS EC50), in data set [1] (read-out: RLUC CCM EC50) and in data set [2] (setting [4]) were 160 nM, 0.3 nM and 0.6 nM, respectively. This molecule also came in with a CC50 at 5 days in data set [3] of 45600 nM.
On the same counts, the results for `C[C@H]1CC[C@@]2(Cc3ccccc3O2)[C@H]2CN1C(=O)c1c(O)c(=O)c(C(=O)NCc3c(F)cc(F)cc3F)cn12` [Example 144, (2R,3′S,7′R)-12′-hydroxy-3′-methyl-1′,11′-dioxo-N-(2,4,6-trifluorobenzyl)-1′,4′,5′,11′-tetrahydro-3H,3′H,7′H-spiro[benzofuran-2,6′-[2,7]methanopyrido[1,2-a][1,4]diazonine]-10′-carboxamide] are 2.3 nM, 0.1 nM, 1.3 nM and 4810 nM.
With `CC1=NO[C@@]2(CC[C@H](C)N3C[C@H]2n2cc(C(=O)NCc4c(F)cc(F)cc4F)c(=O)c(O)c2C3=O)S1` [Example 146, (3′S,5S,7′R)-12′-hydroxy-3,3′-dimethyl-1′,11′-dioxo-N-(2,4,6-trifluorobenzyl)-1′,4′,5′,11′-tetrahydro-3′H,7′H-spiro[[1,4,2]oxathiazole-5,6′-[2,7]methanopyrido[1,2-a][1,4]diazonine]-10′-carboxamide], the EC50 in data set [2] turned out to be 1.3 nM. In data set [3], the CC50 is 16900 nM.
With `C[C@H]1CC[C@@]2(CNC(=O)O2)[C@H]2CN1C(=O)c1c(O)c(=O)c(C(=O)NCc3c(F)cc(F)cc3F)cn12` [Example 59, (3′S,5R,7′R)-12′-hydroxy-3′-methyl-1′,2,11′-trioxo-N-(2,4,6-trifluorobenzyl)-1′,4′,5′,11′-tetrahydro-3′H,7′H-spiro[oxazolidine-5,6′-[2,7]methanopyrido[1,2-a][1,4]diazonine]-10′-carboxamide], the EC50 in data set [2] (setting [4]) came to 51.4 nM. For the same molecule, the CC50 at 5 days in data set [3] was at least 50000 nM.
The like results for `C[C@H]1CC[C@]2(CNC(=O)C2)[C@H]2CN1C(=O)c1c(O)c(=O)c(C(=O)NCc3c(F)cc(F)cc3F)cn12` [Example 58, (3S,3′S,7′S)-12′-hydroxy-3′-methyl-1′,5,11′-trioxo-N-(2,4,6-trifluorobenzyl)-1′,4′,5′,11′-tetrahydro-3′H,7′H-spiro[pyrrolidine-3,6′-[2,7]methanopyrido[1,2-a][1,4]diazonine]-10′-carboxamide] were, in that order, 77.4 nM and at least 50000 nM.
On the same counts, the results for `CCn1c(CN2O[C@@]3(CC[C@H](C)N4C[C@H]3n3cc(C(=O)NCc5c(F)cc(F)cc5F)c(=O)c(O)c3C4=O)CC2=O)nc2ccccc21` [Example 164, (3′S,5S,7′R)-2-((1-ethyl-1H-benzo[d]imidazol-2-yl)methyl)-12′-hydroxy-3′-methyl-1′,3,11′-trioxo-N-(2,4,6-trifluorobenzyl)-1′,4′,5′,11′-tetrahydro-3′H,7′H-spiro[isoxazolidine-5,6′-[2,7]methanopyrido[1,2-a][1,4]diazonine]-10′-carboxamide] are 3 nM and 45700 nM.
Consider `CC1=NOC2(CC[C@H](C)N3C[C@H]2n2cc(C(=O)NCc4ccc(F)cc4F)c(=O)c(O)c2C3=O)N1N(C)C` (stereo partly drawn) [Example 95, (3′S,7′R)—N-(2,4-difluorobenzyl)-4-(dimethylamino)-12′-hydroxy-3,3′-dimethyl-1′,11′-dioxo-1′,4′,5′,11′-tetrahydro-3′H,4H,7′H-spiro[[1,2,4]oxadiazole-5,6′-[2,7]methanopyrido[1,2-a][1,4]diazonine]-10′-carboxamide], for which the concentration for a half-maximal effect (EC50) in data set [2] is 0.6 nM. This molecule showed a CC50 in data set [3] of 24100 nM.
In the case of `CC1=NO[C@@]2(CC[C@H](C)N3C[C@H]2n2cc(C(=O)NCc4ncc(F)c(Cl)c4F)c(=O)c(O)c2C3=O)C1` [Example 150, (3′S,5S,7′R)—N-((4-chloro-3,5-difluoropyridin-2-yl)methyl)-12′-hydroxy-3,3′-dimethyl-1′,11′-dioxo-1′,4′,5′,11′-tetrahydro-3′H,4H,7′H-spiro[isoxazole-5,6′-[2,7]methanopyrido[1,2-a][1,4]diazonine]-10′-carboxamide], the EC50 in data set [2] turned out to be 2.1 nM. Further, in data set [3], the CC50 at 5 days turned out to be 27000 nM.
As to `C[C@H]1OC[C@]2(CC[C@H](C)N3C[C@H]2n2cc(C(=O)NCc4c(F)cc(F)cc4F)c(=O)c(O)c2C3=O)O1` [Example 132, (2S,3′S,4R,7′R)-12′-hydroxy-2,3′-dimethyl-1′,11′-dioxo-N-(2,4,6-trifluorobenzyl)-1′,4′,5′,11′-tetrahydro-3′H,7′H-spiro[[1,3]dioxolane-4,6′-[2,7]methanopyrido[1,2-a][1,4]diazonine]-10′-carboxamide], the EC50 in data set [2] (setting [4]) stood at 1.4 nM. In data set [3], the CC50 at 5 days was found to be 30300 nM.
Regarding `COCC1=NO[C@@]2(CC[C@H](C)N3C[C@H]2n2cc(C(=O)NCc4ccc(F)cc4F)c(=O)c(O)c2C3=O)C1` [Example 22, (3′S,5S,7′R)—N-(2,4-difluorobenzyl)-12′-hydroxy-3-(methoxymethyl)-3′-methyl-1′,11′-dioxo-1′,4′,5′,11′-tetrahydro-3′H,4H,7′H-spiro[isoxazole-5,6′-[2,7]methanopyrido[1,2-a][1,4]diazonine]-10′-carboxamide], the EC50 in data set [2] (setting [4]) turned out to be 1.3 nM. The molecule also returned a CC50 at 5 days in data set [3] of 23700 nM.
In the case of `CC1=NO[C@@]2(CC[C@H](C)N3C[C@H]2n2cc(-c4nnc(Cc5c(F)cc(F)cc5F)s4)c(=O)c(O)c2C3=O)C1` [Example 152, (3′S,5S,7′R)-12′-hydroxy-3,3′-dimethyl-10′-(5-(2,4,6-trifluorobenzyl)-1,3,4-thiadiazol-2-yl)-4′,5′-dihydro-3′H,4H,7′H-spiro[isoxazole-5,6′-[2,7]methanopyrido[1,2-a][1,4]diazonine]-1′,11′-dione], the EC50 in data set [2] was found to be 4.2 nM. This molecule came in with a CC50 at 5 days in data set [3] of 14200 nM.

Usually EC50 stands for the concentration that produces a half-maximal response.
